Test results from patent US20240050406A1, “COMPOSITION COMPRISING OXIRACETAM FOR PREVENTING OR TREATING MUSCULAR DISEASE” (KSB TUGEN INC., priority 2021, published 2024).

Assays:
[1] = test system: model of sarcopenia caused by aging; assay: Aging animal model, 22-month-old mice (Experimental Example 2); format: in vivo, C57BL/6J mice
Source text: For an experimental group in the present invention, oxiracetam having a structure of Formula 1 was purchased from Tokyo Chemical Industry (Japan; Product No. 00398, CAS RN:62613-82-5, purity: 96%) and used.
As a model of sarcopenia caused by aging, 22-month-old male C57BL/6J mice were used. Until the day of the experiment, general feed (EEGJ30060: Cargill Agri Purina, Seongnam, Korea) and water were sufficiently supplied to the experimental animals, and the animals were acclimated for 1 week under an environment of a temperature of 23±2° C., a humidity of 55±10%, and a light-dark cycle of 12 hours-12 hours and used in the experiment.
The animals were randomly divided into groups of 10 animals, such as a control (vehicle, n=10), and 30, 100, and 300 mg/kg/day oxiracetam-administered groups (n=10 per concentration). To the oxiracetam-administered group, oxiracetam was orally administered using a Zonde needle for 90 days once a day at a dose of 30, 100, or 300 mg/kg/day. During the same period, no drug was administered to the control group, and 100 μL of normal saline was orally administered at a time.
To measure grip strength, a grip strength test was performed. The maximum force presented when the forelimbs of an animal model of each group could no longer hold the rod by pulling the tail horizontally while holding the tail of the animal model and holding the rod of a device with both front paws was considered to be grip strength (N). The grip strength was measured once every 3 days, and after repeating five measurements at one time, the average value was shown. Grip strength adaptation training was performed at least three times before drug administration.
The lean body mass of the gastrocnemius muscle (GS) and the lean body mass of the tibialis anterior (TA) for each group was measured every 7 days. Specifically, animal models of each group were anesthetized using 3% isoflurane, fixed to a photographing bed and then photographed. During photographing, the respiratory rates and body temperatures of the animal models were measured with an animal monitoring system (SA Instruments, USA).
(§1) The whole body of the animal model was photographed through dual energy X-ray absorptiometry (DEXA) using iNSiGHT VET DXA (Osteosys, KR), and the lean body mass of each of the gastrocnemius muscle (GS) and the tibialis anterior (TA) was measured and calculated from the two-dimensional images of the gastrocnemius muscle (GS) and the tibialis anterior (TA) by a program using the region of interest (ROI).
At 90 days after the start of the experiment, an exercise stress test was performed. First, the experimental animals in each group were acclimatized to a treadmill machine twice before measurement (1st round: inclination 10°, 10 minutes at 5 m/min and 10 minutes at 10 m/min; 2nd round: inclination 10°, 5 minutes at 5 m/min and 15 munutes at 10 m/min). On the day of the experiment, the experimental animals were allowed to run for 20 minutes at an initial speed of 10 m/min at an inclination of 10°, and then the speed was increased by 2 m/min every 2 minutes, and then the running distance and time were measured with the end point when the experimental animal stayed for 10 seconds without running.
(§2) Statistical processing was performed using GraphPad Prism (GraphPad Software Inc., San Diego, CA, USA). The results of each repeated experiment were expressed as mean±standard error of mean, and analyzed using the analysis of variance (Tukey's test), and statistical significance was acknowledged when the P-value was 0.05 or less.

[2] = test system: animal model in which muscular atrophy is induced by dexamethasone; assay: Comparison with dementia drugs in dexamethasone muscular atrophy model (Experimental Example 5); format: in vivo, ICR mice
Source text: For an experimental group in the present invention, oxiracetam having a structure of Formula 1 was purchased from Tokyo Chemical Industry (Japan; Product No. 00398, CAS RN:62613-82-5, purity: 96%) and used. Mirtazapine and olanzapine were purchased from Tokyo Chemical Industry (Japan, Product Nos. M2151, 00393, purity: 96%) and used.
As experimental animals, 7-week-old male ICR mice were purchased and used. Until the day of the experiment, general feed (EEGJ30060: Cargill Agri Purina, Seongnam, Korea) and water were sufficiently supplied to the experimental animals, and the animals were acclimated for 1 week under an environment of a temperature of 23±2° C., a humidity of 55±10%, and a light-dark cycle of 12 hours-12 hours and used in the experiment.
After the acclimation period for the experimental animals, to create a muscular atrophy model, the mice were randomly divided into groups of 7 animals, such as a control (vehicle, n=7), a dexamethasone-treated group (n=7), and a drug-administered group (n=7). The groups except for the control were intraperitoneally injected dexamethasone at a dose of 10 mg/kg from day 7 to day 21 for 14 days. In the case of the drug-administered group, 7 days before the intraperitoneal administration of dexamethasone, the drug was orally administered using a Zonde needle at a dose of 30 or 10 mg/kg/day once a day for 21 days. During the same period, the control was administered no drug, and 100 μL of normal saline was orally administered at a time. To the dexamethasone-treated group (dexamethasone excipient, CMC), instead of the drug, 100 μL of a 0.5% carboxymethylcellulose (CMC) solution was administered. This is to set the effect on the excipient as a blank.
To measure grip strength, a grip strength test was performed. The maximum force presented when the forelimbs of an animal model of each group could no longer hold the rod by pulling the tail horizontally while holding the tail of the animal model and holding the rod of a device with both front paws was considered to be grip strength (N). Grip strength adaptation training was performed at least three times before drug administration. After measurement before drug administration (day 0) and on day 20 after drug administration began, grip strength variation (%) after drug administration began (day 20) with respect to that before drug administration (day 0) was calculated.
The lean body mass of the gastrocnemius muscle (GS) and the lean body mass of the tibialis anterior (TA) for each group were measured every 7 days. Specifically, animal models of each group were anesthetized using 3% isoflurane, fixed to a photographing bed and then photographed. During photographing, the respiratory rates and body temperatures of the animal models were measured with an animal monitoring system (SA Instruments, USA).
as §1, §2

[3] = Oxi 30, Oxi 100, Oxi 300 mg/kg/day oral, DEXA every 7 days, compared to control
[4] = oxiracetam 30, mirtazapine 10, olanzapine 10 mg/kg/day oral 21 days + dexamethasone, DEXA every 7 days

SMILES: NC(=O)CN1CC(O)CC1=O (racemic) [oxiracetam, (RS)-2-(4-hydroxy-2-oxopyrrolidin-1-yl)acetamide]
- lean body mass of the gastrocnemius muscle (GS) [1, 3]: increased rather than decreased
- lean body mass of the tibialis anterior (TA) [1, 3]: increased rather than decreased
- physical performance capacity (athletic ability), treadmill running distance and time ([1]; Oxi 30, Oxi 100, Oxi 300, day 90, compared to control): increased rather than decreased
- physical performance capacity (athletic ability), treadmill running distance and time ([1]; Oxi 300 group (300 mg/kg/day), day 90): significantly increased
- lean body mass of the gastrocnemius muscle (GS) ([1]; Oxi 300 group (300 mg/kg/day), from week 7): significantly increased
- change in grip strength ([1]; oxiracetam 30, 100 and 300 mg/kg/day oral 90 days, versus control (vehicle)): suppressed and rather increased
- change in grip strength ([2]; oxiracetam 30, mirtazapine 10, olanzapine 10 mg/kg/day oral 21 days + dexamethasone 10 mg/kg i.p. day 7-21): significantly recovers
- lean body mass of the gastrocnemius muscle (GS) [2, 4]: significantly recovers
- lean body mass of the tibialis anterior (TA) [2, 4]: significantly recovers
